In article PMC3852541, “Construction of an in vitro bypassed pyruvate decarboxylation pathway using thermostable enzyme modules and its application to N-acetylglutamate production” (Microbial Cell Factories, 2013):

Molecular target: T1, TtADDH (Thermus thermophilus, UniProt Q53WH9)
T1 construct: gene TTHB247; full-length from RIKEN T. thermophilus HB8 expression plasmid set; E. coli Rosetta2 (DE3), heat-treated lysate (70 C, 30 min)
Experiment: NAD+ reduction at […] nm; HPLC of products
Assay type: biochemical
Settings: 0.2 mM NAD+, 0.2 mM CoA, 0.2 mM acetaldehyde; 50 mM HEPES-NaOH pH 7.0, 100 mM KCl, 10 mM MgCl2, 50 C

T1 sequence (Q53WH9 whole entry): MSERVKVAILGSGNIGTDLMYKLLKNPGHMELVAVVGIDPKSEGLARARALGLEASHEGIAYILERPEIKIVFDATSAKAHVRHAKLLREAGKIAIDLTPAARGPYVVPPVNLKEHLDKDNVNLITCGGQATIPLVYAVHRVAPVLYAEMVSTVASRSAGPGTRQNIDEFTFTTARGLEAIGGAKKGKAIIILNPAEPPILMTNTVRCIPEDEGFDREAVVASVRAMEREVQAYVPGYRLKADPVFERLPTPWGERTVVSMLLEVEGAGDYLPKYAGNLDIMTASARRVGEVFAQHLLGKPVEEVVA

CC=O [acetaldehyde]
NAD+ reduction at 340 nm; HPLC of products: TtADDH could catalyze the oxidation of acetaldehyde in both CoA-dependent (acetyl-CoA-forming) and CoA-independent
